{
  "source": "ChEMBL document CHEMBL4368890",
  "about": "“Progress toward allosteric ligands of metabotropic glutamate 7 (mGlu7) receptor: 2008-present” (Medchemcomm, 2019)",
  "key": {"[1]": {"biological_target": "T1, Metabotropic glutamate receptor 7 (Homo sapiens, UniProt Q14831)", "T1 sequence (Q14831 whole entry)": "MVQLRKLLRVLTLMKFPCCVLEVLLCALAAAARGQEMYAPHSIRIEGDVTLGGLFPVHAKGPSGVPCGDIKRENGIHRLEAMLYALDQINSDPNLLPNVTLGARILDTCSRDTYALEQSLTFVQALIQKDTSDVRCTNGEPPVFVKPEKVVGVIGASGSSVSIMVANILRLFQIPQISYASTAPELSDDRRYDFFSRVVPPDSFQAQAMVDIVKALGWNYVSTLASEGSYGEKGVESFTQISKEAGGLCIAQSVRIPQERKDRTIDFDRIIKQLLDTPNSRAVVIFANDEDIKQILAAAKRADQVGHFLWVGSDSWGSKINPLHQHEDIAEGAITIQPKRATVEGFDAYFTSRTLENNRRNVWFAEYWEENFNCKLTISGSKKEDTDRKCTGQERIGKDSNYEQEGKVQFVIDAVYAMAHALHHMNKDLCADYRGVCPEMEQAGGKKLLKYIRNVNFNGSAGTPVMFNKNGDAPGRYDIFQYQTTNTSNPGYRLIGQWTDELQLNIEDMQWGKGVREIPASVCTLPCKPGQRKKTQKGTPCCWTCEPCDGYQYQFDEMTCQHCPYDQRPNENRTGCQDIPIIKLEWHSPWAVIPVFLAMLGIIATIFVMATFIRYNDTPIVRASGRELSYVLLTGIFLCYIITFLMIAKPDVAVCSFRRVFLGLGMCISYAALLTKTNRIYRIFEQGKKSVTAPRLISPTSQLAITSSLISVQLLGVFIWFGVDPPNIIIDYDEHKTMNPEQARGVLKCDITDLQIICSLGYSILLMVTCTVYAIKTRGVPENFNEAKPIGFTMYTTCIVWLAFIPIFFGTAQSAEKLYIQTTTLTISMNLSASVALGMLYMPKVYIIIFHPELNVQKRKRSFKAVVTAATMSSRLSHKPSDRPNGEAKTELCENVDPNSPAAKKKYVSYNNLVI", "assay": "Agonist activity at mGlu7 (unknown origin)"}, "[2]": {"biological_target": "Metabotropic glutamate receptor 6 (Homo sapiens, UniProt O15303)", "assay": "Allosteric activity at mGlu6 (unknown origin)"}, "[3]": {"biological_target": "T2, Metabotropic glutamate receptor 3 (Homo sapiens, UniProt Q14832)", "T2 sequence (Q14832 whole entry)": "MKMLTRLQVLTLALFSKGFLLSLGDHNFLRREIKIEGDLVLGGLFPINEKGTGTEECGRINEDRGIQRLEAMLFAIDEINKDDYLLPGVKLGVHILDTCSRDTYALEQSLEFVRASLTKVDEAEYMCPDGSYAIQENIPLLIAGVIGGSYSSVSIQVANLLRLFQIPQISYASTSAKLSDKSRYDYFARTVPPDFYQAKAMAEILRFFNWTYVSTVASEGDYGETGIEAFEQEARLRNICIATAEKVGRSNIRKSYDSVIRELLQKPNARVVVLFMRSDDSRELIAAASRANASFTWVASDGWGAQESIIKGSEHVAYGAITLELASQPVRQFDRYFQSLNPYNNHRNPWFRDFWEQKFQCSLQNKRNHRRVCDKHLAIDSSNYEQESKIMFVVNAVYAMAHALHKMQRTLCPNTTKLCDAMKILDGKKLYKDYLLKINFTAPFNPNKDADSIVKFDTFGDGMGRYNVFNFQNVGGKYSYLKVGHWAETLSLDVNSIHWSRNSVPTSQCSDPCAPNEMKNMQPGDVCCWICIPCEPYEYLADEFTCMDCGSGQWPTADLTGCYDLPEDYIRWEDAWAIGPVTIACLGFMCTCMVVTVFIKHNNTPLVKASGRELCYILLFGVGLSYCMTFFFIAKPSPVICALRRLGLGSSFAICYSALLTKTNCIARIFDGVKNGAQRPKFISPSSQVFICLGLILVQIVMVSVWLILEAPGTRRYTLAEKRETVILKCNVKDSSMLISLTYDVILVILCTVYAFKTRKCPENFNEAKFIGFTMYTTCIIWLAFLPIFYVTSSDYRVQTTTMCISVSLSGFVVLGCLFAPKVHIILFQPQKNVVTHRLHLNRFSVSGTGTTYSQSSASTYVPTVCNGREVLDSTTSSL", "assay": "Allosteric activity at mGlu3 (unknown origin)"}, "[4]": {"biological_target": "Metabotropic glutamate receptor 2 (Homo sapiens, UniProt Q14416)", "sequence (Q14416 whole entry)": "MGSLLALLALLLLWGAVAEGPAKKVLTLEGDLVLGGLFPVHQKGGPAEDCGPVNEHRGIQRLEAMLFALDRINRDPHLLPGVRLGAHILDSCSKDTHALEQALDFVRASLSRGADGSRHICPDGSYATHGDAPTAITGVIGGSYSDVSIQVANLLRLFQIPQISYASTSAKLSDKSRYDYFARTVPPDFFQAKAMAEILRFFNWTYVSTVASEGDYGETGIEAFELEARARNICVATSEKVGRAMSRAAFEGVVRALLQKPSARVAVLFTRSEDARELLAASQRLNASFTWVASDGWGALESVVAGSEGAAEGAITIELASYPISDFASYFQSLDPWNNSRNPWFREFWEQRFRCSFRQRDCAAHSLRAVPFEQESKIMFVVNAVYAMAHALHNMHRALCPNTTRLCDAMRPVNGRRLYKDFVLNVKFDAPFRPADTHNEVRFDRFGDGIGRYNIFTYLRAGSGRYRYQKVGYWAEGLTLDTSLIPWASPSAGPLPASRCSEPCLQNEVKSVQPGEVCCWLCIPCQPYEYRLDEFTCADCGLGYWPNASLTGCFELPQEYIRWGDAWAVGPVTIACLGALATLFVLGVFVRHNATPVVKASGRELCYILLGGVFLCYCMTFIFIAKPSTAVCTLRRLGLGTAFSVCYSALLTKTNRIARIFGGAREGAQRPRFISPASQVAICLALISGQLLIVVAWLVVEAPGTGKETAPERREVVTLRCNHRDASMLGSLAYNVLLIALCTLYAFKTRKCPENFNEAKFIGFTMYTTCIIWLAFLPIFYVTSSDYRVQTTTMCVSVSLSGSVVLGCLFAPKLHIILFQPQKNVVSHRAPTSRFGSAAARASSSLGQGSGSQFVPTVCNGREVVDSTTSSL", "assay": "Allosteric activity at mGlu2 (unknown origin)"}, "[5]": {"biological_target": "Metabotropic glutamate receptor 1 (Homo sapiens, UniProt Q13255)", "sequence (Q13255 whole entry)": "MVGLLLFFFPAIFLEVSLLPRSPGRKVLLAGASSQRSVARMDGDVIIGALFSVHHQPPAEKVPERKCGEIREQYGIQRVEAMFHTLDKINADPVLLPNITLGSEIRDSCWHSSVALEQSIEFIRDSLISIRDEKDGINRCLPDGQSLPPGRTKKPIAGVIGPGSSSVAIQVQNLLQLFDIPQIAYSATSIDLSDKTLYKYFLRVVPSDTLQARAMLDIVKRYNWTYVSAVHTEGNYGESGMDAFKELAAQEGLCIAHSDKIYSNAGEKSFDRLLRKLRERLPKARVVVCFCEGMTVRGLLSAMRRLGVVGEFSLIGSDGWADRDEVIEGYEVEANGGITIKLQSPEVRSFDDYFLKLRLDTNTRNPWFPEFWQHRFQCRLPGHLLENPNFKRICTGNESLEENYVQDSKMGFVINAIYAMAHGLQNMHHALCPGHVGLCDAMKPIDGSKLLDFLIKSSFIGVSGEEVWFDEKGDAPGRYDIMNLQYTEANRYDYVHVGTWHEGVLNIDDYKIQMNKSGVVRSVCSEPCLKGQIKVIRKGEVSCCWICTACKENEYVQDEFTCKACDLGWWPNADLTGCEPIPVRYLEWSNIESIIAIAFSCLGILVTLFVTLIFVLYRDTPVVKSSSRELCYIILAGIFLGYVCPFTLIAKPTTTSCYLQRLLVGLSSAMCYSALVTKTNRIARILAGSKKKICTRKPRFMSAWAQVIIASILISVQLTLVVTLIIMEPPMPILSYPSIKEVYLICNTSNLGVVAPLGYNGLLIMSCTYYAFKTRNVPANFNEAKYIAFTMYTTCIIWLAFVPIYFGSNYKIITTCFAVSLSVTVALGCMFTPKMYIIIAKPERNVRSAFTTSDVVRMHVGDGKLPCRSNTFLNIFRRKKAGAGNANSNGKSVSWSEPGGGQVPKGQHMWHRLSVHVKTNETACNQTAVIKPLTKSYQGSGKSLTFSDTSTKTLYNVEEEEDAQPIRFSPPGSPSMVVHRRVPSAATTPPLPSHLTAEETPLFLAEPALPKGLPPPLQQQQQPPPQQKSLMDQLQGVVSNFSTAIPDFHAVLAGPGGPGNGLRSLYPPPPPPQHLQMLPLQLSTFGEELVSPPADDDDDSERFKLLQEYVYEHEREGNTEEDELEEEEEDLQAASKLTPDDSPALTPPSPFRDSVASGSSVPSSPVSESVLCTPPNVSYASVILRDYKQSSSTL", "assay": "Allosteric activity at mGlu1 (unknown origin)"}, "[6]": {"assay": "[…], Kp in mouse at 10 mg/kg, ip after 1 hr", "type": "ADME, organism-based", "settings": "in vivo"}, "[7]": {"biological_target": "T3, Metabotropic glutamate receptor 5 (Homo sapiens, UniProt P41594)", "T3 sequence (P41594 whole entry)": "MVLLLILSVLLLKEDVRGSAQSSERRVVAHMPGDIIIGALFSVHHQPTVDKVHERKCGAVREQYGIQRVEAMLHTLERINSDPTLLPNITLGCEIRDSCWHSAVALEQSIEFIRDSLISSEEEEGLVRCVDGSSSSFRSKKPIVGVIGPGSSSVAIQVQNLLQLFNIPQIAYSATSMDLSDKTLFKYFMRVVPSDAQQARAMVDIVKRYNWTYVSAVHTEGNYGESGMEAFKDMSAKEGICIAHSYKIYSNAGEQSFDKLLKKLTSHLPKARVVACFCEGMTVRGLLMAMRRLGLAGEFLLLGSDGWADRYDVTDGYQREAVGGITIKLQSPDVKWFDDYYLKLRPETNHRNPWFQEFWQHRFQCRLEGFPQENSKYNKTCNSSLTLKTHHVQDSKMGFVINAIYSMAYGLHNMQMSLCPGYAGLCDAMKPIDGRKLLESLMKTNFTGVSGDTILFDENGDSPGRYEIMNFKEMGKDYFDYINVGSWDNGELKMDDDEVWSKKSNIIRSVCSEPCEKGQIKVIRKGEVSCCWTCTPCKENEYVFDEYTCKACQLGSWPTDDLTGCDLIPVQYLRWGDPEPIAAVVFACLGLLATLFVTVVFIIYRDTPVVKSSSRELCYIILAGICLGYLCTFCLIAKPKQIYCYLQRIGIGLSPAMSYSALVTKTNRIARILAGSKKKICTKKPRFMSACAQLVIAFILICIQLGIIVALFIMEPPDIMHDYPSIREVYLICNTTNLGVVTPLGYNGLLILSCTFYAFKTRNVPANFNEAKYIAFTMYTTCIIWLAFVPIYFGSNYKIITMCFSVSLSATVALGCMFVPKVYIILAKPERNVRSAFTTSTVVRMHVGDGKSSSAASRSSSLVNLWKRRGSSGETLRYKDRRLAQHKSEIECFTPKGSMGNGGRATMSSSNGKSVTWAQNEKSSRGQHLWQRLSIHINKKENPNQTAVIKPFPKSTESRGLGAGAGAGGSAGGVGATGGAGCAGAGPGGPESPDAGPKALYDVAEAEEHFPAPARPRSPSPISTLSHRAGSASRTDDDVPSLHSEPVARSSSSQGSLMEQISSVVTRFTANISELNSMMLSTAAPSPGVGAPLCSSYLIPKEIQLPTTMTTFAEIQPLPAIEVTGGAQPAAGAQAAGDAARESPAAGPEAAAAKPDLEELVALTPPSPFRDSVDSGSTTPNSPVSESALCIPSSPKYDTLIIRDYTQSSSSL", "assay": "Allosteric activity at mGlu5 (unknown origin)"}, "[8]": {"biological_target": "Metabotropic glutamate receptor 8 (Rattus norvegicus, UniProt P70579)", "assay": "Agonist activity at rat mGlu8 receptor expressed in HEK cell co-expressing Galpha15 (unknown origin) assessed as […] intracellular Ca2+ mobilization by Fluo-4-AM dye based fluorescence assay", "type": "functional"}, "[9]": {"assay": "Lipophilicity, logP of the compound", "type": "physicochemical", "settings": "octanol/water"}, "[10]": {"biological_target": "Metabotropic glutamate receptor 4 (Homo sapiens, UniProt Q14833)", "assay": "Agonist activity at mGlu4 (unknown origin)"}, "[11]": {"biological_target": "T1, Metabotropic glutamate receptor 7", "assay": "Negative allosteric modulator activity at human mGlu7 assessed as reduction in Ca2+ mobilization by HTS assay", "type": "functional"}, "[12]": {"biological_target": "T2, Metabotropic glutamate receptor 3", "assay": "Allosteric agonist activity at human mGlu3 expressed in CHO cells assessed as reduction in forskolin-induced cAMP production after 30 mins by cAMP reagent-based assay", "type": "functional, cell-based"}, "[13]": {"biological_target": "T3, Metabotropic glutamate receptor 5", "assay": "Allosteric agonist activity at human mGlu5 expressed in CHO cells assessed as reduction in forskolin-induced cAMP production after 30 mins by cAMP reagent-based assay", "type": "functional, cell-based"}, "[14]": {"biological_target": "T1, Metabotropic glutamate receptor 7", "assay": "Allosteric agonist activity at human mGlu7 expressed in CHO cells assessed as reduction in forskolin-induced cAMP production after 30 mins by cAMP reagent-based assay", "type": "functional, cell-based"}, "[15]": {"biological_target": "T1, Metabotropic glutamate receptor 7", "assay": "Allosteric agonist activity at human mGlu7 expressed in CHO cells assessed as reduction in forskolin-induced cAMP production after 30 mins by cAMP reagent-based assay relative to control", "type": "functional, cell-based"}, "[16]": {"biological_target": "T1, Metabotropic glutamate receptor 7", "assay": "Agonist activity at human mGlu7 expressed in CHO cells assessed as reduction in forskolin-induced cAMP production", "type": "functional, cell-based"}, "[17]": {"biological_target": "T1, Metabotropic glutamate receptor 7", "assay": "Agonist activity at human mGlu7"}, "[18]": {"biological_target": "Metabotropic glutamate receptor 7 (Mus musculus, UniProt Q68ED2)", "sequence (Q68ED2 whole entry)": "as the sequence (Q14831 whole entry) above, with R5G, A27V, S488T, A520P, D578N counted along it", "assay": "Agonist activity at mouse mGlu7"}},
  "data": [
    {"smiles": "O=C(NCc1ccccc1F)C1c2ccccc2CC(=O)N1CC1CC1", "note": "(stereo not given)", "values": [
      {"measurement": "EC50", "setting": "[1]", "result": 0.0292, "unit": "µM"}
    ]},
    {"smiles": "COc1ccc(-c2c(C)nn3c(C(F)(F)F)cc(C)nc23)c(F)c1F", "values": [
      {"measurement": "EC50", "setting": "[2]", "result": "> 10", "unit": "µM"},
      {"measurement": "IC50", "setting": "[2]", "result": "> 10", "unit": "µM"},
      {"measurement": "EC50", "setting": "[3]", "result": "> 10", "unit": "µM"},
      {"measurement": "IC50", "setting": "[3]", "result": "> 10", "unit": "µM"},
      {"measurement": "EC50", "setting": "[4]", "result": "> 10", "unit": "µM"},
      {"measurement": "IC50", "setting": "[4]", "result": "> 10", "unit": "µM"},
      {"measurement": "EC50", "setting": "[5]", "result": "> 10", "unit": "µM"},
      {"measurement": "IC50", "setting": "[5]", "result": "> 10", "unit": "µM"},
      {"measurement": "Kp at 1 h", "setting": "[6]", "result": 2.1},
      {"measurement": "EC50", "setting": "[7]", "result": "> 10", "unit": "µM"},
      {"measurement": "IC50", "setting": "[7]", "result": "> 10", "unit": "µM"}
    ]},
    {"smiles": "COC(=O)c1ccc(-n2c(C)cc(C(=O)CSc3ccc(NC(C)=O)cc3)c2C)cc1", "values": [
      {"measurement": "EC50", "setting": "[8]", "result": 0.93, "unit": "µM"}
    ]},
    {"smiles": "C[C@H](C(=O)NC1COc2ccc(F)cc2C1O)c1ccccc1", "note": "(stereo not given in full)", "values": [
      {"measurement": "EC50", "setting": "[1]", "result": 0.00121, "unit": "µM"}
    ]},
    {"smiles": "CNCC[C@H](NCC(=O)N1CCCc2ccccc21)c1ccccc1", "values": [
      {"measurement": "logP", "setting": "[9]", "result": 3}
    ]},
    {"smiles": "CCc1nn2c(C(F)(F)F)cc(C)nc2c1-c1cc(F)c(OC)cc1F", "values": [
      {"measurement": "EC50", "setting": "[10]", "result": 2.1, "unit": "µM"}
    ]},
    {"smiles": "CCc1nc2c(o1)CC(c1ccc(C)cc1C)CC2=O", "note": "(stereo not given)", "values": [
      {"measurement": "IC50", "setting": "[11]", "result": 0.063, "unit": "µM"}
    ]},
    {"smiles": "CNC(=O)N1CCCC(CN2CCC(OC(c3ccccc3)c3ccccc3)CC2)C1", "note": "(stereo not given)", "values": [
      {"measurement": "pEC50", "setting": "[12]", "result": 6.2},
      {"measurement": "EC50", "setting": "[13]", "result": 0.631, "unit": "µM"}
    ]},
    {"smiles": "c1ccc(C(NCCNC(c2ccccc2)c2ccccc2)c2ccccc2)cc1", "values": [
      {"measurement": "EC50", "setting": "[14]", "result": 0.158, "unit": "µM"},
      {"measurement": "Emax", "setting": "[15]", "result": 62, "unit": "%"},
      {"measurement": "logP", "setting": "[9]", "result": 5.9}
    ]},
    {"smiles": "O=C(C[C@H](NCC1CC1)c1ccccc1)N1CCCOc2ccccc21", "values": [
      {"measurement": "EC50", "setting": "[16]", "result": 0.001, "unit": "µM"}
    ]},
    {"smiles": "C[C@H](C(=O)NC1COc2ccccc2C1S(C)(=O)=O)c1ccc(F)cc1", "note": "(stereo not given in full)", "values": [
      {"measurement": "EC50", "setting": "[17]", "result": 0.0069, "unit": "µM"},
      {"measurement": "EC50", "setting": "[18]", "result": 0.0018, "unit": "µM"}
    ]}
  ]
}
